The conditions of data set [1]: phospholipid alone, not complexed with 22A; cited from earlier work.
Data set [2] concerns NF-κB reporter, human TLR4 (HEK-Blue cells). The experiment in a line: LPS-induced NF-κB expression in HEK-Blue cells (Example X). The class given is cell-based. Particulars: 0.1 mg/ml, LPS 2 ng/ml, 18 h. On the procedure:
FIG. 29A-I: sHDL complexes inhibit LPS-induced NF-κB activation in a lipid component and concentration dependent. HEK-Blue system was used to analyze neutralization of the LPS-induced inflammatory response. HEK-Blue cells were co-stimulated with 0.01, 0.03, and 0.1 mg/ml sHDL and 2 ng/ml LPS and incubated for 18 h. The activation of NF-κB reporter was quantified by measuring absorption at 650 nm (A-H). sHDL at 0.03 mg/ml were treated in presence of 2 ng/ml LPS and the activation of NF-κB reporter was quantified by measuring absorption at 650 nm (I).
The HEK-Blue cell system (InvivoGen) was used to analyze neutralization of the LPS-induced inflammatory response. HEK-Blue cells stably express reporter-linked human TLR4, CD14, MD2, and a NF-κB and are designed for studying the stimulation of human TLR4. Briefly, HEK-Blue cells were cultured in Dulbecco's Modified Eagle's Medium (DMEM) containing 10% low endotoxin fetal bovine serum (FBS) and selective antibiotics according to the manufacturer's instructions (InvivoGen). Growth medium was discarded and cells were resuspended in HEK-Blue Detection medium. Cells were seeded at 25,000 cells per well. The cells were treated with sHDL at 0.01, 0.03, or 0.1 mg/ml and 2 ng/ml of LPS. […] The blue color was quantified by measuring absorption at 650 nm using a SpectraMax M3 plate reader (Molecular Devices, Sunnyvale, CA).

Data set [3] in a line: Diameter of 22A-phospholipid sHDL complexes by DLS. The class given is physicochemical. Particulars: volume intensity average. As for the experimental part:
The quality of resulting sHDL complexes were analyzed by following analytical techniques. The purity of sHDL complexes were determined by gel permeation chromatography (GPC), with UV detection at 220 nm, using a Tosoh TSK gel G3000SWxl column (Tosoh Bioscience, King of Prussia, PA). The sHDL diameters were determined by dynamic light scattering (DLS), using a Zetasizer Nano ZSP (Malvern Instruments, Westborough, MA) and the volume intensity average values were reported. Transition temperature of sHDL complexes were analyzed by differential scanning calorimetry (DSC) using Nano DSC (TA Instruments, New Castle, DE).

Data set [4] concerns endotoxemia mice (5 mg/kg LPS). As to conditions: 100 mg/kg; cited from earlier work.
Another data set relates to endotoxemia rats. As to conditions: cited from earlier work.
Another data set relates to SARS-CoV. Particulars: via reduced or relocated ACE-2 receptors; cited from earlier work.

As for `CCCCCCCCCCCCCC(=O)OC[C@H](COP(=O)([O-])OCC[N+](C)(C)C)OC(=O)CCCCCCCCCCCCC` [DMPC, 1,2-dimyristoyl-sn-glycero-3-phosphatidylcholine], the Tm of phospholipid in data set [1] is 24.5 °C. Turning to `CCCCCCCCCCCCCCCC(=O)OC[C@H](COP(=O)([O-])OCC[N+](C)(C)C)OC(=O)CCCCCCCCCCCCCCC` [DPPC, 1,2-dipalmitoyl-sn-glycero-3-phosphatidylcholine], the Tm of phospholipid in data set [1] was 41.6 °C.

As for `CCCCCCCCCCCCCCCCCC(=O)OC[C@H](COP(=O)([O-])OCC[N+](C)(C)C)OC(=O)CCCCCCCCCCCCCCCCC` [DSPC, 1,2-distearoyl-sn-glycero-3-phosphatidylcholine], the Tm of phospholipid in data set [1] is 54.5 °C. Regarding `CCCCCCCC/C=C\CCCCCCCC(=O)O[C@H](COC(=O)CCCCCCCCCCCCCCC)COP(=O)([O-])OCC[N+](C)(C)C` [POPC, 1-palmitoyl-2-oleoyl-phosphatidylcholine], the Tm of phospholipid in data set [1] is −3.3±0.5 °C. Consider “PVLDLFRELLNELLEALKQKLK (SEQ ID NO: 4) [22A peptide]”, for which, in data set [2], the “activation of NF-kB” value is reported as “suppressed”. Moreover, the “Size (nm)” value is recorded as 4.49 nm in data set [3] and 4.488 nm in data set [3] (listed as 22A PEPTIDE). Turning to apoA-I: apolipoprotein A-I, the mortality result in data set [4] is “significantly lowered”. For the same molecule, the “plasma TNF-α” value in the data set with endotoxemia rats (10 mg/kg 2 h post-LPS injection (1 mg/kg LPS)) is given as “reduce”. Besides, the survival rate entry in the data set on endotoxemia rats (10 mg/kg, endotoxemia rats (5 mg/kg)) is “increased”.

As to methyl-β-cyclodextrin [MβCD], the SARS-CoV cell entry result in the data set with SARS-CoV is reported as “inhibited”.

The record behind these values is patent US20240050522A1, “COMPOSITIONS AND METHODS FOR PREVENTING, ATTENUATING, AND TREATING MEDICAL CONDITIONS WITH sHDL NANOPARTICLES” (The Regents of the University of Michigan, priority 2020, published 2024).
